In the assay the test system is recombinant NL4-3 virus (Renilla luciferase in nef, Gag P373S; NLRluc) in MT-2 cells. Description: whole plant or invertebrate. To be noted: Renilla. The assay is classed as cell-based, HIV. The gist of the method: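 Virus from 293T transfection, titered in MT-2 by luciferase. MT-2 (RPMI, 10% HI-FBS) infected ± inhibitor serial dilutions, 4-5 d. Readout: Dual Luciferase premix (lysis:reagent:Stop & Glo 2:1:1), immediate luminescence.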

[1] abbreviates: NL43, luciferase activity in cells infected for 4-5 days with NLRluc recombinants, serial dilutions of inhibitor, class symbols (key in Table 1), read-out: EC50.
The mark [2] stands for this setting: NL43, luciferase activity in cells infected for 4-5 days with NLRluc recombinants, serial dilutions of inhibitor, numeric values, read-out: EC50.

SMILES strings stand for the structures. Where two headings read alike, the source gives them in different places.

One may read the EC50 as the concentration that produces a half-maximal response.

Regarding `C=C(C)[C@@H]1CC[C@]2(N3CC3)CC[C@]3(C)[C@H](CC[C@@H]4[C@@]5(C)CC=C(c6ccc(C(=O)O)cc6)C(C)(C)[C@@H]5CC[C@]43C)[C@@H]12` [Example 173, 4-((1R,3aS,5aR,5bR,7aR,11aS,11bR,13bR)-3a-(aziridin-1-yl)-5a,5b,8,8,11a-pentamethyl-1-(prop-1-en-2-yl)-2,3,3a,4,5,5a,5b,6,7,7a,8,11,11a,11b,12,13,13a,13b-octadecahydro-1H-cyclopenta[a]chrysen-9-yl)benzoic acid], where the note is “NL43”, the EC50 is less than 100 nM. With `C=C(C)[C@@H]1CC[C@]2(NC(=O)COc3cccnc3)CC[C@]3(C)[C@H](CC[C@@H]4[C@@]5(C)CC=C(c6ccc(C(=O)O)cc6)C(C)(C)[C@@H]5CC[C@]43C)[C@@H]12` [Example 121, 4-((1R,3aS,5aR,5bR,7aR,11aS,11bR,13aR,13bR)-5a,5b,8,8,11a-pentamethyl-1-(prop-1-en-2-yl)-3a-(2-(pyridin-3-yloxy)acetamido)-2,3,3a,4,5,5a,5b,6,7,7a,8,11,11a,11b,12,13,13a,13b-octadecahydro-1H-cyclopenta[a]chrysen-9-yl)benzoic acid], the concentration for a half-maximal effect (EC50) under setting [1] was less than 100 nM.

Turning to `C=C(C)[C@@H]1CC[C@]2(NCCNc3nccc(SC)n3)CC[C@]3(C)[C@H](CC[C@@H]4[C@@]5(C)CC=C(c6ccc(C(=O)O)cc6)C(C)(C)[C@@H]5CC[C@]43C)[C@@H]12` [Example 197, 4-((1R,3aS,5aR,5bR,7aR,11aS,11bR,13aR,13bR)-5a,5b,8,8,11a-pentamethyl-3a-(2-(4-(methylthio)pyrimidin-2-ylamino)ethylamino)-1-(prop-1-en-2-yl)-2,3,3a,4,5,5a,5b,6,7,7a,8,11,11a,11b,12,13,13a,13b-octadecahydro-1H-cyclopenta[a]chrysen-9-yl)benzoic acid], the EC50 under setting [1] was less than 100 nM.

As for `C=C(C)[C@@H]1CC[C@]2(NCCN3CCN(S(=O)(=O)C(C)C)CC3)CC[C@]3(C)[C@H](CC[C@@H]4[C@@]5(C)CC=C(c6ccc(C(=O)O)cc6)C(C)(C)[C@@H]5CC[C@]43C)[C@@H]12` [Example B26, 4-((1R,3aS,5aR,5bR,7aR,11aS,11bR,13aR,13bR)-3a-((2-(4-(isopropylsulfonyl)piperazin-1-yl)ethyl)amino)-5a,5b,8,8,11a-pentamethyl-1-(prop-1-en-2-yl)-2,3,3a,4,5,5a,5b,6,7,7a,8,11,11a,11b,12,13,13a,13b-octadecahydro-1H-cyclopenta[a]chrysen-9-yl)benzoic acid], the EC50 under setting [1] was less than 100 nM. On the same count and under the same terms, the figure for `C=C(C)[C@@H]1CC[C@]2(NC(=O)N3CCN(C(C)=O)CC3)CC[C@]3(C)[C@H](CC[C@@H]4[C@@]5(C)CC=C(c6ccc(C(=O)O)cc6)C(C)(C)[C@@H]5CC[C@]43C)[C@@H]12` [Example 41, 4-((1R,3aS,5aR,5bR,7aR,11aS,11bR,13aR,13bR)-3a-(4-acetylpiperazine-1-carboxamido)-5a,5b,8,8,11a-pentamethyl-1-(prop-1-en-2-yl)-2,3,3a,4,5,5a,5b,6,7,7a,8,11,11a,11b,12,13,13a,13b-octadecahydro-1H-cyclopenta[a]chrysen-9-yl)benzoic acid] is less than 100 nM.

`C=C(C)[C@@H]1CC[C@]2(NC(=O)N(C)C)CC[C@]3(C)[C@H](CC[C@@H]4[C@@]5(C)CC=C(c6ccc(C(=O)O)cc6)C(C)(C)[C@@H]5CC[C@]43C)[C@@H]12` [Example 32, 4-((1R,3aS,5aR,5bR,7aR,11aS,11bR,13aR,13bR)-3a-(3,3-dimethylureido)-5a,5b,8,8,11a-pentamethyl-1-(prop-1-en-2-yl)-2,3,3a,4,5,5a,5b,6,7,7a,8,11,11a,11b,12,13,13a,13b-octadecahydro-1H-cyclopenta[a]chrysen-9-yl)benzoic acid]: under setting [2], the EC50 turned out to be 10 nM. For the molecule `C=C(C)[C@@H]1CC[C@]2(NC(=O)N3CCNC(C(=O)O)C3)CC[C@]3(C)[C@H](CC[C@@H]4[C@@]5(C)CC=C(c6ccc(C(=O)O)cc6)C(C)(C)[C@@H]5CC[C@]43C)[C@@H]12` (mixture of isomers) [Example 63, 4-((1R,3aS,5aR,5bR,7aR,11aS,11bR,13aR,13bR)-9-(4-carboxyphenyl)-5a,5b,8,8,11a-pentamethyl-1-(prop-1-en-2-yl)-2,3,3a,4,5,5a,5b,6,7,7a,8,11,11a,11b,12,13,13a,13b-octadecahydro-1H-cyclopenta[a]chrysen-3a-ylcarbamoyl)piperazine-2-carboxylic acid], the concentration giving a half-maximal response (EC50) under setting [1] is less than 100 nM. On the same count and under the same terms, the figure for `C=C(C)[C@@H]1CC[C@]2(NC(=O)NCCC(=O)O)CC[C@]3(C)[C@H](CC[C@@H]4[C@@]5(C)CC=C(c6ccc(C(=O)O)cc6)C(C)(C)[C@@H]5CC[C@]43C)[C@@H]12` [Example 33, 4-((1R,3aS,5aR,5bR,7aR,11aS,11bR,13aR,13bR)-3a-(3-(2-carboxyethyl)ureido)-5a,5b,8,8,11a-pentamethyl-1-(prop-1-en-2-yl)-2,3,3a,4,5,5a,5b,6,7,7a,8,11,11a,11b,12,13,13a,13b-octadecahydro-1H-cyclopenta[a]chrysen-9-yl)benzoic acid] is less than 100 nM; for `C=C(C)[C@@H]1CC[C@]2(NC(=O)NCCCn3ccnc3)CC[C@]3(C)[C@H](CC[C@@H]4[C@@]5(C)CC=C(c6ccc(C(=O)O)cc6)C(C)(C)[C@@H]5CC[C@]43C)[C@@H]12` [Example 14, 4-((1R,3aS,5aR,5bR,7aR,11aS,11bR,13aR,13bR)-3a-(3-(3-(1H-imidazol-1-yl)propyl)ureido)-5a,5b,8,8,11a-pentamethyl-1-(prop-1-en-2-yl)-2,3,3a,4,5,5a,5b,6,7,7a,8,11,11a,11b,12,13,13a,13b-octadecahydro-1H-cyclopenta[a]chrysen-9-yl)benzoic acid] it is less than 100 nM. For `C=C(C)[C@@H]1CC[C@]2(NC(=O)NCCN3CCCC3=O)CC[C@]3(C)[C@H](CC[C@@H]4[C@@]5(C)CC=C(c6ccc(C(=O)O)cc6)C(C)(C)[C@@H]5CC[C@]43C)[C@@H]12` [Example 28, 4-((1R,3aS,5aR,5bR,7aR,11aS,11bR,13aR,13bR)-5a,5b,8,8,11a-pentamethyl-3a-(3-(2-(2-oxopyrrolidin-1-yl)ethyl)ureido)-1-(prop-1-en-2-yl)-2,3,3a,4,5,5a,5b,6,7,7a,8,11,11a,11b,12,13,13a,13b-octadecahydro-1H-cyclopenta[a]chrysen-9-yl)benzoic acid], the EC50 under setting [2] was found to be 4 nM.

Regarding `C=C(C)[C@@H]1CC[C@]2(NC(=O)C3(NC(=O)OC(C)(C)C)CC3)CC[C@]3(C)[C@H](CC[C@@H]4[C@@]5(C)CC=C(c6ccc(C(=O)O)cc6)C(C)(C)[C@@H]5CC[C@]43C)[C@@H]12` [Example 130-2, 4-((1R,3aS,5aR,5bR,7aR,11aS,11bR,13aR,13bR)-3a-(1-(tert-butoxycarbonylamino)cyclopropanecarboxamido)-5a,5b,8,8,11a-pentamethyl-1-(prop-1-en-2-yl)-2,3,3a,4,5,5a,5b,6,7,7a,8,11,11a,11b,12,13,13a,13b-octadecahydro-1H-cyclopenta[a]chrysen-9-yl)benzoic acid], under setting [1], the EC50 was less than 100 nM.

Consider `C=C(C)[C@@H]1CC[C@]2(NCC3CCCNC3)CC[C@]3(C)[C@H](CC[C@@H]4[C@@]5(C)CC=C(c6ccc(C(=O)O)cc6)C(C)(C)[C@@H]5CC[C@]43C)[C@@H]12` (stereo partly drawn) [Example 154, 4-((1R,3aS,5aR,5bR,7aR,11aS,11bR,13aR,13bR)-5a,5b,8,8,11a-pentamethyl-3a-(piperidin-3-ylmethylamino)-1-(prop-1-en-2-yl)-2,3,3a,4,5,5a,5b,6,7,7a,8,11,11a,11b,12,13,13a,13b-octadecahydro-1H-cyclopenta[a]chrysen-9-yl)benzoic acid], for which, under setting [1], the EC50 was less than 100 nM.

As for `C=C(C)[C@@H]1CC[C@]2(NC(=O)[C@@H]3CC(F)(F)CN3C(=O)OC(C)(C)C)CC[C@]3(C)[C@H](CC[C@@H]4[C@@]5(C)CC=C(c6ccc(C(=O)O)cc6)C(C)(C)[C@@H]5CC[C@]43C)[C@@H]12` [Example 114, 4-((1R,3aS,5aR,5bR,7aR,11aS,11bR,13aR,13bR)-3a-((S)-1-(tert-butoxycarbonyl)-4,4-difluoropyrrolidine-2-carboxamido)-5a,5b,8,8,11a-pentamethyl-1-(prop-1-en-2-yl)-2,3,3a,4,5,5a,5b,6,7,7a,8,11,11a,11b,12,13,13a,13b-octadecahydro-1H-cyclopenta[a]chrysen-9-yl)benzoic acid], the EC50 under setting [1] was less than 100 nM. Still for that read-out and setting: next, `C=C(C)[C@@H]1CC[C@]2(Nc3nc(CC)cs3)CC[C@]3(C)[C@H](CC[C@@H]4[C@@]5(C)CC=C(c6ccc(C(=O)O)cc6)C(C)(C)[C@@H]5CC[C@]43C)[C@@H]12` [Example 184B, 4-((1R,3aS,5aR,5bR,7aR,11aS,11bR,13aR,13bR)-3a-(4-ethylthiazol-2-ylamino)-5a,5b,8,8,11a-pentamethyl-1-(prop-1-en-2-yl)-2,3,3a,4,5,5a,5b,6,7,7a,8,11,11a,11b,12,13,13a,13b-octadecahydro-1H-cyclopenta[a]chrysen-9-yl)benzoic acid]: less than 100 nM; `C=C(C)[C@@H]1CC[C@]2(NCCN3CCN(S(=O)(=O)CCC)CC3)CC[C@]3(C)[C@H](CC[C@@H]4[C@@]5(C)CC=C(c6ccc(C(=O)O)cc6)C(C)(C)[C@@H]5CC[C@]43C)[C@@H]12` [Example B23, 4-((1R,3aS,5aR,5bR,7aR,11aS,11bR,13aR,13bR)-5a,5b,8,8,11a-pentamethyl-1-(prop-1-en-2-yl)-3a-((2-(4-(propylsulfonyl)piperazin-1-yl)ethyl)amino)-2,3,3a,4,5,5a,5b,6,7,7a,8,11,11a,11b,12,13,13a,13b-octadecahydro-1H-cyclopenta[a]chrysen-9-yl)benzoic acid]: less than 100 nM.

Values taken from patent publication US20140343000A1 (priority 2011, published 2014).
